{
  "source": "ChEMBL document CHEMBL3232912",
  "about": "“Anti-inflammatory diterpenoids from the roots of Euphorbia ebracteolata” (J Nat Prod, 2014)",
  "key": {"RAW264.7 [1]": {"system": "RAW264.7", "test": "Antiinflammatory activity in mouse RAW264.7 cells assessed as inhibition of LPS-induced nitric oxide production after 24 hrs by Griess method", "format": "functional, cell-based", "conditions": "RAW264.7, 24 h"}, "RAW264.7 [2]": {"system": "RAW264.7", "test": "Cytotoxicity against mouse RAW264.7 cells at IC50 by MTT assay", "format": "cell-based"}},
  "data": [
    {"smiles": "C=C[C@]1(C)CC[C@@]2(C)c3cc(O)c(O)c(C)c3C[C@H](O)[C@@H]2C1", "values": [
      {"measurement": "IC50", "setting": "RAW264.7 [1]", "value": 2.44, "unit": "µM"},
      {"measurement": "Activity", "setting": "RAW264.7 [2]", "value": "Non-toxic"}
    ]},
    {"smiles": "C=C[C@]1(C)CC[C@]2(C)[C@H](CC[C@H]3[C@@](C)(CO)C(=O)C=C[C@@]32O)C1", "values": [
      {"measurement": "IC50", "setting": "RAW264.7 [1]", "value": 7.32, "unit": "µM"},
      {"measurement": "Activity", "setting": "RAW264.7 [2]", "value": "Non-toxic"}
    ]},
    {"smiles": "C=C[C@]1(C)CC[C@@]2(C)C3=CC[C@H](O)[C@](C)(CO)[C@@H]3CC[C@@H]2C1", "values": [
      {"measurement": "IC50", "setting": "RAW264.7 [1]", "value": 7.29, "unit": "µM"},
      {"measurement": "Activity", "setting": "RAW264.7 [2]", "value": "Non-toxic"}
    ]},
    {"smiles": "C=C[C@]1(C)CC[C@]2(C)[C@H](CC[C@H]3[C@@](C)(CO)C(=O)C=C[C@]32O)C1", "values": [
      {"measurement": "IC50", "setting": "RAW264.7 [1]", "value": 19, "unit": "µM"},
      {"measurement": "Activity", "setting": "RAW264.7 [2]", "value": "Non-toxic"}
    ]},
    {"smiles": "C=C[C@]1(C)CC[C@@]2(C)C3=CC[C@H](O)C(C)(C)[C@@H]3C[C@H](O)[C@@H]2C1", "values": [
      {"measurement": "IC50", "setting": "RAW264.7 [1]", "value": 5.51, "unit": "µM"},
      {"measurement": "Activity", "setting": "RAW264.7 [2]", "value": "Non-toxic"}
    ]},
    {"smiles": "C=C[C@]1(C)CC[C@@]2(C)C3=CC(=O)[C@H](O)[C@](C)(CO)[C@@H]3CC[C@@H]2C1", "values": [
      {"measurement": "IC50", "setting": "RAW264.7 [1]", "value": 1.02, "unit": "µM"},
      {"measurement": "Activity", "setting": "RAW264.7 [2]", "value": "Non-toxic"}
    ]},
    {"smiles": "C=C[C@]1(C)CC[C@@]2(C)c3cc(O)c(O)c(C)c3CC[C@@H]2C1", "values": [
      {"measurement": "IC50", "setting": "RAW264.7 [1]", "value": 3.33, "unit": "µM"},
      {"measurement": "Activity", "setting": "RAW264.7 [2]", "value": "Non-toxic"}
    ]},
    {"smiles": "C=C[C@]1(C)CC[C@@]2(C)C3=CC(=O)O[C@@H]3C(C)(C)C[C@H](O)[C@@H]2C1", "values": [
      {"measurement": "IC50", "setting": "RAW264.7 [1]", "value": 6.49, "unit": "µM"},
      {"measurement": "Activity", "setting": "RAW264.7 [2]", "value": "Non-toxic"}
    ]},
    {"smiles": "C=C[C@]1(C)CC[C@@]2(C)C3=C[C@@H](O)[C@H](O)C(C)(C)[C@@H]3CC[C@@H]2C1", "values": [
      {"measurement": "IC50", "setting": "RAW264.7 [1]", "value": 24.3, "unit": "µM"},
      {"measurement": "Activity", "setting": "RAW264.7 [2]", "value": "Non-toxic"}
    ]},
    {"smiles": "C=C[C@]1(C)CC[C@@]2(CO)C3=CC[C@H](O)C(C)(C)[C@@H]3CC[C@@H]2C1", "values": [
      {"measurement": "IC50", "setting": "RAW264.7 [1]", "value": 5.57, "unit": "µM"},
      {"measurement": "Activity", "setting": "RAW264.7 [2]", "value": "Non-toxic"}
    ]},
    {"smiles": "C=C[C@]1(C)CC[C@@]2(C)C3=CC(=O)[C@@H]4C[C@]4(C)[C@]3(O)CC[C@@H]2C1", "values": [
      {"measurement": "IC50", "setting": "RAW264.7 [1]", "value": 2.76, "unit": "µM"},
      {"measurement": "Activity", "setting": "RAW264.7 [2]", "value": "Non-toxic"}
    ]},
    {"smiles": "COc1ccc2c(c1)c(CC(=O)O)c(C)n2C(=O)c1ccc(Cl)cc1", "note": "[INDOMETHACIN]", "values": [
      {"measurement": "IC50", "setting": "RAW264.7 [1]", "value": 16.7, "unit": "µM"}
    ]},
    {"smiles": "C=C[C@]1(C)CC[C@@]2(CO)C3=CC(=O)O[C@@H]3C(C)(C)CC[C@@H]2C1", "values": [
      {"measurement": "IC50", "setting": "RAW264.7 [1]", "value": 7.5, "unit": "µM"},
      {"measurement": "Activity", "setting": "RAW264.7 [2]", "value": "Non-toxic"}
    ]},
    {"smiles": "C=C[C@]1(C)CC[C@@]2(C)C3=C[C@H](O)[C@H](O)C(C)(C)[C@@H]3CC[C@@H]2C1", "values": [
      {"measurement": "IC50", "setting": "RAW264.7 [1]", "value": 12.5, "unit": "µM"},
      {"measurement": "Activity", "setting": "RAW264.7 [2]", "value": "Non-toxic"}
    ]}
  ]
}
